Legend:
[1] = tested on: m3 receptor; assay: m3 receptor density in CHO-β2/m3 co-transfected cell line; format: cell-based; conditions: day 5
Description: (§1) The effects of epismilagenin cathylate, sarsasapogenin cathylate, episarsasapogenin cathylate, episarsasapogenin succinate, epismilagenin acetate and sarsasapogenin on the expression of muscarinic acetylcholine receptor (m) in CHO cells or β2 and m3 receptors in CHO cells transfected with either a vector for the m receptor or co-transfected with the vector for β2 and m3 receptors were investigated.
(§2) The results are illustrated in Table 1 below and in FIG. 1 of the drawings. Over the culturing period of CHO cells transfected with a vector for the m receptor, treatment with epismilagenin cathylate, sarsasapogenin cathylate, episarsasapogenin cathylate, episarsasapogenin succinate and sarsasapogenin each prevents the decrease in m receptor number.

[2] = tested on: β2 adrenoceptor; assay: β2 adrenoceptor density in CHO-β2/m3 co-transfected cell line; format: cell-based; conditions: day 5
Description: as §1, §2

[3] = tested on: aged Sprague-Dawley rats; assay: Y-maze learning and memory test in aged rats; format: in vivo, rat; conditions: 18 mg kg−1 day−1 oral in food, 3 months
Procedure: (§3) Aged Sprague-Dawley rats aged were divided into different groups, one control and groups treated for 2-3 months with either sarsasapogenin, episarsasapogenin cathylate or smilagenin (18 mg kg^−1 day^−1, n=10). A control group (n=14) of untreated young rats was also included in the study. The daily dose of drug was mixed in a minimum amount of food and was administered every morning separately to each rat.
A Y-maze apparatus was used for the learning and memory test. On the floor of each arm of the Y-maze is an array of copper rods to which electric current is applied whenever needed, with adjustable voltage. Each arm is 45 cm long and has a 15 W lamp at the end, which is turned on when needed. After 3 months drug administration, each rat was trained for 7 consecutive days, as follows. For each training session, the rat was put into one arm of the Y-maze, after two minutes rest, an electrical current was applied to the copper rods and the lamp of the clockwise arm was illuminated to indicate the non-stimulation area. If the rat went into that arm, one correct response was recorded, otherwise, one wrong response was recorded: This stimulation-response test was repeated 20 times each day, with a pause of 5 sec between each two consecutive tests. The number of correct responses following the twenty tests on the seventh day was used to express learning ability, (the higher the number the better the learning ability). The rats were then left resting for 30 days and the procedure was repeated once more. The number of correct responses of the 20 tests after the 30 day rest period was used to represent the memory ability

[4] = tested on: progressive motor neuropathy (pmn) mice; assay: Survival and behaviour of pmn mice (Charcot-Marie-Tooth model); format: in vivo; conditions: pmn mouse
Description: Amyotrophic lateral sclerosis (ALS) is a progressive fatal neurodegenerative disorder that causes motor neurone degeneration, […], paralysis and death. The cause of this disease is heterogeneous: mutations in the Cu/Zn superoxide dismutase (SOD-1) gene is responsible for some forms of human ALS. Animal models of this disease include the SOD-1 transgenic mice over-expressing SOD-1 gene and the progressive motor neuropathy (pmn, a model of Charcot-Marie-Tooth) mice.

[5] = tested on: rat primary cortical neurones; assay: Prevention of glutamate-induced neurodegeneration (LDH release), pre-treatment; format: cell-based; conditions: 30 nM, given 24 h before glutamate; LDH 24 h after glutamate; control = 100
Procedure: The objective of this study was to examine the effects of sarsasapogenin, episarsasapogenin cathylate, episarsasapogenin, epismilagenin and smilagenin on the survival of rat primary cortical neurones exposed to glutamate, which is known to induce neuro degeneration.
Rat cortical neurones were cultured for 10 days; at day 10 the medium was changed to a serum-free defined medium. On day 12, 24 hours before glutamate exposure, cultures were washed and medium was replaced with fresh medium containing positive control (β-oestradiol), test compounds (sarsasapogenin, episarsasapogenin cathylate, episarsasapogenin, epismilagenin and smilagenin) or vehicle control (DMSO, 0.25%) or diosgenin as negative control.
On day 13, cultures were exposed to glutamate. After the incubation period, the cultures were washed with and placed in fresh medium, supplemented with relevant compounds or vehicle to evaluate their protective effects, 24 h after glutamate exposure.
(§4) Neuronal cell survival was evaluated by measuring lactate dehydrogenase (LDH) activity released in the media 24 h after test compound treatment or glutamate+test compound exposure, using the CytoTox 96 non-radioactive kit and quantitated by measuring wavelength absorbance at 450 nm.

[6] = tested on: rat mesencephalic dopaminergic neurones; assay: Treatment of dopaminergic neurones after MPP+ exposure (survival, neurites); format: cell-based; conditions: MPP+ 2 μM
Description: Smilagenin and sarsasapogenin also reverse the neurodegeneration caused by exposure to the neurotoxin 1-methyl-4-phenylpyridinium (MPP^+) in rat mesencephalic dopaminergic neurones; a model of Parkinson's disease in vitro.
Glial cell line-derived neurotrophic factor (GDNF) and brain-derived neurotrophic factor (BDNF), molecules that are involved in neuronal growth, and 17β-oestradiol were used as positive controls. Treatment with smilagenin and sarsasapogenin produced a significant increase in the neuronal survival compared to neurones exposed to MPP^+ alone (Table 8).
Exposure to MPP^+ caused not only a significant decrease in dopaminergic number but also in the percentage of neurites.

[7] = tested on: dopamine (D) 1 receptor; assay: Dopamine D1 receptor density in aged rats; format: in vivo, rat; conditions: aged rats treated 3 months; aged untreated 129.2±36.8, young 157.5±33.2
Procedure: as §3
(§5) By contrast, smilagenin and sarsasapogenin treatment in aged rats for 3 months restored the D1 and D2 receptor density (smilagenin 177±10.9; 217±45.7 fmol/mg protein; sarsasapogenin 172.0±44.0; 206.4±60.5 respectively).

[8] = tested on: dopamine (D) 2 receptor; assay: Dopamine D2 receptor density in aged rats; format: in vivo, rat; conditions: aged rats treated 3 months; aged untreated 153.8±40.5, young 200.6±50.9
Procedure: as §3, §5

[9] = tested on: rat primary cortical neurones; assay: Neurite outgrowth in rat primary cortical neurones; format: cell-based; conditions: for Number of neurones displaying neurites, Mean ± s.e.m (%): control 47 ± 2; for Neurite length measured using optical micrometry, Mean ± s.e.m (%): control 100 ± 4
Description: Neurodegenerative disorders are characterised by a progressive loss of neurones and degradation of neuronal processes (neurites). Agents that induce neurite outgrowth may promote the formation of new connections between neurones and ameliorate the symptoms of neurodegenerative conditions (Katzman et al, Faseb J., 5, 278-286, 1991).

[10] = tested on: muscarinic acetylcholine receptor; assay: Brain muscarinic acetylcholine receptor density in aged rats (dual-site competitive ligand binding); format: in vivo, rat; conditions: 18 mg kg−1 day−1 oral, 2-3 months
Procedure: as §3
Muscarinic acetylcholine receptor density in the brain was measured. Tissue was prepared as follows: brains were removed quickly after decapitation, frozen in dry ice, and transferred to a freezer. The brains were homogenised and the pellet was finally suspended in buffer.
The dual-site competitive ligand binding assay was used to measure muscarinic acetylcholine receptor density.

[11] = tested on: rat mesencephalic dopaminergic neurones; assay: Pre-treatment of dopaminergic neurones before MPP+ exposure (neuronal survival); format: cell-based; conditions: pre-treatment 30 nM; MPP+ 2 μM; MPP+ alone 55 ± 3
Description: Smilagenin and sarsasapogenin prevent the neurodegeneration caused by exposure to the neurotoxin, 1-methyl-4-phenylpyridinium (MPP^+) in rat mesencephalic dopaminergic neurones; a model of Parkinson's disease in vitro.
Glial cell line-derived neurotrophic factor (GDNF) and brain-derived neurotrophic factor (BDNF), molecules that are involved in neuronal growth, were used as positive controls.

[12] = tested on: rat primary cortical neurones; assay: Reversal of glutamate-induced neurodegeneration (LDH), treatment after glutamate exposure; format: cell-based; conditions: LDH after 24 h, control = 100
Procedure: as §4
As above mentioned, exposure of rat primary cortical cultures to glutamate (100 μM; 10 min) caused an increase in lactate dehydrogenase (LDH) activity measured after 24 h, indicating a significant neurodegeneration.

[13] = tested on: rat primary spinal motor neurones; assay: Glutamate-induced neurodegeneration in spinal motor neurones (LDH); format: cell-based; conditions: control 100 ± 1
Procedure: The objective of this study was to examine the effects of sarsasapogenin and smilagenin on the survival of rat primary spinal motor neurones exposed to glutamate, which is known to induce neurodegeneration in this model of motor neurodegeneration.
Rat motor neurones were prepared according to the method described by (Martinou et al, Neuron, 8, 737-744, 1992). On day 10, medium was removed and the cultures were exposed to glutamate (4 microM) for 10 min at 37° C. in defined medium. After the glutamate exposure, cultures were washed with Dulbecco modified Eagle medium at 37° C. then placed in fresh culture medium containing test compounds. After 48 h, the extent of spinal motor neurone degeneration was determined by measuring the amount of lactate dehydrogenase (LDH) released into the culture medium as above.

[14] = tested on: BDNF; assay: BDNF levels in aged rats; format: in vivo, rat; conditions: aged rats treated 3 months; aged untreated 1.205±0.219, young 1.647±0.277
Procedure: as §3

CC(=O)OC1CCC2(C)C(CCC3C2CCC2(C)C3CC3OC4(CCC(C)CO4)C(C)C32)C1 (stereo not drawn) [epismilagenin acetate]
density of m3 receptors [1]: did not significantly alter
decrease in β2 adrenoceptors (density) [2]: significantly prevented the decrease

C[C@H]1CC[C@@]2(OC1)O[C@H]1C[C@H]3[C@@H]4CC[C@@H]5C[C@@H](O)CC[C@]5(C)[C@H]4CC[C@]3(C)[C@H]1[C@@H]2C [sarsasapogenin]
Learning and memory ability (Y-maze) [3]: restored the learning and memory ability
Behavioural deficits ([4]; oral administration): improve the behavioural deficits
Lifespan (survival) ([4]; oral administration (FIG. 6)): increase the lifespan
Prevention of glutamate-induced neurodegeneration, Mean ± s.e.m (%) [5]: 79 ± 3%
Percentage of neurites in dopaminergic neurones after MPP+ exposure, Mean ± s.e.m (%) ([6]; 0.03 nM, control 41 ± 4, MPP+ alone 27 ± 5): 43 ± 4%
Dopaminergic neurones after MPP+ exposure (survival), Mean ± s.e.m (%) ([6]; treatment 0.03 nM, MPP+ alone 76 ± 4): 112 ± 6%
D1 receptor density [7]: 172.0±44.0 fmol/mg protein
D2 receptor density [8]: 206.4±60.5 fmol/mg protein
Number of neurones displaying neurites, Mean ± s.e.m (%) ([9]; 0.3 pM): 55 ± 2%
Neurite length measured using optical micrometry, Mean ± s.e.m (%) ([9]; 0.3 pM): 177 ± 5%
Number of neurones displaying neurites, Mean ± s.e.m (%) ([9]; 3 pM): 61 ± 1%
Neurite length measured using optical micrometry, Mean ± s.e.m (%) ([9]; 3 pM): 197 ± 5%
Number of neurones displaying neurites, Mean ± s.e.m (%) ([9]; 30 pM): 62 ± 2%
Neurite length measured using optical micrometry, Mean ± s.e.m (%) ([9]; 30 pM): 211 ± 6%
Muscarinic acetylcholine receptor density in brain [10]: significantly restored
Dopaminergic neurones after MPP+ exposure (survival), Mean ± s.e.m (%) [11]: 89 ± 3%
Cortical neurones previously exposed to glutamate, Mean ± s.e.m (%) ([12]; 3 nM after glutamate 100 μM 10 min): 101 ± 3%
Cortical neurones previously exposed to glutamate, Mean ± s.e.m (%) ([12]; 30 nM after glutamate 100 μM 10 min): 112 ± 1%
Glutamate-induced neurodegeneration in spinal motor neurones, Mean ± s.e.m (%) ([13]; 0.03 nM for 48 h after glutamate 4 microM 10 min): 123 ± 2%
Glutamate-induced neurodegeneration in spinal motor neurones, Mean ± s.e.m (%) ([13]; 3 nM for 48 h after glutamate 4 microM 10 min): 137 ± 1%
Glutamate-induced neurodegeneration in spinal motor neurones, Mean ± s.e.m (%) ([13]; 300 nM for 48 h after glutamate 4 microM 10 min): 136 ± 6%
BDNF levels [14]: 1.410±0.232 ng/g tissue

Source: patent US20110190249A1, “THERAPEUTIC METHODS AND USES OF SAPOGENINS AND THEIR DERIVATIVES” (PHYTOPHARM PLC, priority 2002, published 2011)
